Patent US20070036871A1, “TECHNIQUE FOR TREATMENT AND PREVENTION OF FUNGAL DISEASES IN GROWING GRAPES BY APPLICATION OF A SODIUM CHLORITE, UREA SULFURIC ACID SOLUTION” (priority 2005, published 2007)
Several values for one entry are separate records, joined by “and”; a condition that tells them apart may be missing. Equal values may be shown once.

System: powdery mildew
Assay: Field trials of foliar fungicide treatments on Carignane grape vines against powdery mildew (Example IV)
Assay type: in vivo
[1] = individual plot data, rated July 3 after June 22 treatment
[2] = individual plot data, rated July 12 after July 3 treatment
[3] = individual plot data, rated June 22 after June 12 treatment
[4] = rated July 3 after June 22 treatment (10 days after second treatment), average of plots
[5] = rated July 12 after July 3 treatment (10 days after third treatment), average of plots
[6] = rated June 22 after June 12 treatment (10 days after first treatment), average of plots

`[S]` [4-6 lb/acre sulphur, sulphur] was tested, and the “% fruit w/ symptoms” value [1] was 20% and 40% and 15% and 5%, the “% leaves w/ symptoms” value [1] was 10% and 20% and 2% and 8% and the “% severity of infected fruit” value [1] was 15% and 30% and 10% and 5%. For the same molecule, the “% severity of infected leaves” value [1] was 15% and 20% and 4% and 5%, the “% fruit w/ symptoms” value [2] was 10% and 60% and 40% and 20% and the “% leaves w/ symptoms” value [2] was 2% (3×) and 15%. The “% severity of infected fruit” value [2] was 10% (2×) and 40% and 25%, the “% severity of infected leaves” value [2] was 5% (3×) and 2% and the “% fruit w/ symptoms” value [3] was 30% and 40% and 20% and 15%. For the same molecule, the “% leaves w/ symptoms” value [3] was 2% (2×) and 20% and 5%, the “% severity of infected fruit” value [3] was 8% and 30% and 6% and 20% and the “% severity of infected leaves” value [3] was 2% (2×) and 18% and 5%. The “% fruit w/ symptoms” value [4] was 20%, the “% leaves w/ symptoms” value [4] was 10% and the “% severity of infected fruit” value [4] was 15%. The “% severity of infected leaves” value [4] was 11% and 20%, the “% fruit w/ symptoms” value [5] was 32.5% and the “% leaves w/ symptoms” value [5] was 5.25%. The “% severity of infected fruit” value [5] was 21.25%, the “% severity of infected leaves” value [5] was 4.25% and the “% fruit w/ symptoms” value [6] was 26.25%. For the same molecule, the “% leaves w/ symptoms” value [6] was 7.25%, the “% severity of infected fruit” value [6] was 16% and the “% severity of infected leaves” value [6] was 6.75%. For the same molecule, the “fungal disease control (in words)” value (ten days after the third treatment) was “substantially lower disease infection in leaves over the low rate NaClO2+US acid treatment”.
